Results on 2 compounds are retold here after patent US8193169B2, “(20R)-2α-methyl-19,26,2-trinor-vitamin D analogs” (Wisconsin Alumni Research Foundation, priority 2006, dated 2012).

Each structure is given as a SMILES string.

Experiment [1] concerns 24-hydroxylase (24Ohase) gene promoter. As to the kind of experiment: In vitro transcription assay, luciferase reporter in ROS 17/2.8 (bone) cells. The format is cell-based. The conditions noted are these: for EC50: ROS 17/2.8 cells, 24-hydroxylase promoter-luciferase, FIG. 3, read-out: EC50, transcriptional activity in bone cells. As to the method:
Transcription activity was measured in ROS 17/2.8 (bone) cells that were stably transfected with a 24-hydroxylase (24Ohase) gene promoter upstream of a luciferase reporter gene (Arbour et al., 1998). Cells were given a range of doses. Sixteen hours after dosing the cells were harvested and luciferase activities were measured using a luminometer.
RLU=relative luciferase units.

Experiment [2] is described as follows: Bone calcium mobilization (serum calcium) in vitamin D-deficient rats. The format is in vivo, Sprague-Dawley rats. The conditions noted are these: vitamin D-deficient rats on 0.02% Ca diet, FIG. 4. As to the method:
(§1) Male, weanling Sprague-Dawley rats were placed on Diet 11 (0.47% Ca) diet+AEK oil for one week followed by Diet 11 (0.02% Ca)+AEK oil for 3 weeks. The rats were then switched to a diet containing 0.47% Ca for one week followed by two weeks on a diet containing 0.02% Ca. Dose administration began during the last week on 0.02% calcium diet. Four consecutive ip doses were given approximately 24 hours apart. Twenty-four hours after the last dose, blood was collected from the severed neck and the concentration of serum calcium determined as a measure of bone calcium mobilization. The first 10 cm of the intestine was also collected for intestinal calcium transport analysis using the everted gut sac method.

Experiment [3] has as its system HL-60 cells. As to the kind of experiment: HL-60 cell differentiation (nitro blue tetrazolium reduction). The format is cell-based, human. The conditions noted are these: for EC50: HL-60 cells, differentiation into monocytes, FIG. 2. As to the method: The study drugs were dissolved in ethanol and the concentrations determined using UV spectrophotometry. Serial dilutions were prepared so that a range of drug concentrations could be tested without changing the final concentration of ethanol (≦0.2%) present in the cell cultures.
Human promyelocytic leukemia (HL60) cells were grown in RPMI-1640 medium containing 10% fetal bovine serum. The cells were incubated at 37° C. in the presence of 5% CO2.
HL60 cells were plated at 1.2×10^5 cells/ml. Eighteen hours after plating, cells in duplicate were treated with drug. Four days later, the cells were harvested and a nitro blue tetrazolium reduction assay was performed (Collins et al., 1979; J. Exp. Med. 149:969-974). The percentage of differentiated cells was determined by counting a total of 200 cells and recording the number that contained intracellular black-blue formazan deposits. Verification of differentiation to monocytic cells was determined by measuring phagocytic activity (data not shown).

In experiment [4] the target is T1, full-length recombinant rat vitamin D receptor (Rattus norvegicus, UniProt P13053).
T1 sequence (P13053 1-423): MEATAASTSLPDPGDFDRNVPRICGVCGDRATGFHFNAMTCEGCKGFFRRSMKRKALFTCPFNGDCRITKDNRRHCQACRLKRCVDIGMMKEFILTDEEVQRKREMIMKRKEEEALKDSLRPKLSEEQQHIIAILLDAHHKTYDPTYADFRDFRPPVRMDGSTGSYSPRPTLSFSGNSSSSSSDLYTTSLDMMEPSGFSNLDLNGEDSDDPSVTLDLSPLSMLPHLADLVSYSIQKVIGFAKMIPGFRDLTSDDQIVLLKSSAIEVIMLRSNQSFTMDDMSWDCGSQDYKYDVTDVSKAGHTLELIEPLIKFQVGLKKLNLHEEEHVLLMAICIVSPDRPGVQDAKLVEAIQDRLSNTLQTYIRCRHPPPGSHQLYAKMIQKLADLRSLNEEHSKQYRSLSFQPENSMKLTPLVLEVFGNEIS
The conditions noted are these: compared to 1,25(OH)2D3.

Experiment [5] concerns the target T1, full-length recombinant rat vitamin D receptor. As to the kind of experiment: biochemical.
A short description of experiment [6]: Intestinal calcium transport, everted gut sac method, in vitamin D-deficient rats. The format is in vivo, Sprague-Dawley rats. The conditions noted are these: 35,100 pmol/day ip for 4 consecutive days, FIG. 5. The protocol:
as §1

[7] abbreviates: compared to 1α,25-dihydroxyvitamin D3.

In general, EC50 refers to the midpoint of the concentration-response curve. Consider `C=C1/C(=C\C=C2/CCC[C@]3(C)[C@@H]([C@H](C)CCCC(C)(C)O)CC[C@@H]23)C[C@@H](O)C[C@@H]1O` [1,25(OH)2D3, 1α,25-dihydroxyvitamin D3, reference compound], for which the EC50 in experiment [1] was 0.3 nM; in experiment [3] it was 2 nM. Besides, the “Bone calcium mobilization activity (serum calcium)” value in experiment [2] (780 pmol/day) is “significant activity”. Further, the Serum calcium levels result in experiment [2] (all dosages) is on record as “increased serum calcium levels at all dosages”.
The term Ki denotes the dissociation constant of the complex between target and ligand, obtained from inhibition or displacement. Regarding `CC(CCCCO)C1CCC2C(=CC=C3CC(O)C(C)C(O)C3)CCCC21C` [B-9, (20R)-2α-methyl-19,26,27-trinor-1α,25-dihydroxyvitamin D3], the “VDR binding potency relative to 1,25(OH)2D3 (times less potent)” value in experiment [4] is “about 10 times”. Further, the concentration giving a half-maximal response (EC50) is 10 nM in experiment [1] and 30 nM in experiment [3] (Homo sapiens). Besides, the “Transcriptional activity in bone cells relative to 1α,25-dihydroxyvitamin D3 (times less)” value in experiment [1] (setting [7]) is given as “about 30 times”. Moreover, the Ki in experiment [5] turned out to be 1 nM. Also, in experiment [2] (35,100 pmol/day ip for 4 consecutive days), the “Bone calcium mobilization activity (serum calcium)” value is “did not result in any mobilization of bone calcium”. The “HL-60 cell differentiation activity relative to 1α,25-dihydroxyvitamin D3 (times less activity)” value in experiment [3] (setting [7]) is listed as around 10 times. Further, the “Intestinal calcium transport activity” value in experiment [6] is listed as “did not result in any activity”.
